Reference: patent US4021544A, “Complement inhibitors” (American Cyanamid Company, priority 1976, dated 1977)
Where “and” joins values, the source holds several entries; their conditions need not be identical. Equal values may be shown once. Where a name gives a salt, the structure may show the parent alone.

Assays:
[1] = test system: shunt pathway activated by cobra venom factor; assay: Test, Code 036 (C-Shunt inhibitor); assay type: cell-based; details: Table I, lysis of fragile human erythrocytes in autologous serum, serial two-fold dilution assay, higher well number indicates higher activity
Excerpt: (§1) An active inhibitor protects C2 from C1 and C4; (ii) Test, Code 035 (C3- C9 inhibitor) - This test determines the ability of the late components of human complement (C3-C9) to lyse EAC 142 in the presence of appropriate dilutions of the test compound. An active inhibitor protects EAC 142 from lysis by human C3-C9; (iii) Test, Code 036 (C-Shunt inhibitor) - In this test human erythrocytes rendered fragile are lysed in autologous serum via the shunt pathway activated by cobra venom factor in the presence of appropriate dilutions of the test compound. Inhibition of the shunt pathway results in failure of lysis; (iv) Forssman Vasculitis Test - Here, the well known complement dependent lesion, Forssman vasculitis, is produced in guinea pigs by intradermal injection of rabbit anti-forssman antiserum. The lesion is measured in terms of diameter, edema and hemorrhage and the extent to which a combined index of these is inhibited by prior intraperitoneal injection of the test compound at 200 mg/kg in then reported, unless otherwise stated; (v) Forssman Shock Test -- Lethal shock is produced in guinea pigs by an i.v. injection of anti-Forssman antiserum and the harmonic mean death time of treated guinea pigs is compared with that of simultaneous controls; (vi) Complement Level Reduction Test -- In this test, the above dosed guinea pigs, or others, are bled for serum and the complement level is determined in undiluted serum by the capillary tube method of U.S. Pat. No. 3,876,376 and compared to undosed control guinea pigs; and (vii) Cap 50 Test -- Here, appropriate amounts of the test compound are added to a pool of guinea pig serum in vitro, after which the undiluted serum capillary tube assay referred to above is run. The concentration of compound inhibiting 50% is reported.

Citrated sheep plasma = assay: In vitro anti-coagulant activity (AC) test; details: for A.C. Wells: Table I, clot inhibition, recalcified citrated sheep plasma, serial two-fold dilutions; for ANTI-COAGULANT ACTIVITY (WELLS) AC: Table II, highest active serial dilution
Method: The sheep RBC'S, kept in suspension throughout the clotting incubation time, become enmeshed in the fibrin matrix if a clot forms. Upon centrifugation of the plate untrapped RBC's form buttons, the sizes of which correspond to the degree of clot inhibition; this providing a measure of anti-coagulant activity (AC).

activated human C1 = activated human C1 (Homo sapiens, UniProt P09871); assay: Test, Code 026 (C1 inhibitor); assay type: biochemical; details: for 026 Wells: Table I, serial two-fold dilution assay, higher well number indicates higher activity; for LOGARITHMIC DIFFERENCE EXPRESSED AS WELLS / COMPLEMENT INHIBITING ACTIVITY (WELLS) CODE 026 / INTRINSIC THERAPEUTICAL INDEX: Table II; for LOGARITHMIC DIFFERENCE EXPRESSED AS WELLS: Code 026 wells minus AC wells (base 2); for COMPLEMENT INHIBITING ACTIVITY (WELLS) CODE 026: highest active serial dilution; for INTRINSIC THERAPEUTICAL INDEX: antilogarithm (base 2) of difference between Code 026 wells and AC wells
Excerpt: as §1

[2] = test system: late components of human complement (C3-C9); assay: Test, Code 035 (C3-C9 inhibitor); assay type: biochemical; details: Table I; lysis of EAC 142; serial two-fold dilution assay, higher well number indicates higher activity
Excerpt: as §1

Molecule | 036 Wells ([1]; Sodium Salt) | A.C. Wells (Citrated sheep plasma) | ANTI-COAGULANT ACTIVITY (WELLS) AC (Citrated sheep plasma) | 036 Wells [1] | 026 Wells (activated human C1) | LOGARITHMIC DIFFERENCE EXPRESSED AS WELLS (activated human C1) | COMPLEMENT INHIBITING ACTIVITY (WELLS) CODE 026 (activated human C1) | 035 Wells [2] | INTRINSIC THERAPEUTICAL INDEX (activated human C1) | A.C. Wells (Citrated sheep plasma; Sodium Salt) | ANTI-COAGULANT ACTIVITY (WELLS) AC (Citrated sheep plasma; Sodium Salt) | COMPLEMENT INHIBITING ACTIVITY (WELLS) CODE 026 (activated human C1; Sodium Salt)
O=S(=O)(O)OC[C@H]1O[C@H](O[C@H]2[C@H](OS(=O)(=O)O)[C@@H](OS(=O)(=O)O)[C@@H](O[C@H]3[C@H](OS(=O)(=O)O)[C@@H](OS(=O)(=O)O)[C@@H](O[C@H]4[C@H](OS(=O)(=O)O)[C@@H](OS(=O)(=O)O)C(OS(=O)(=O)O)O[C@@H]4COS(=O)(=O)O)O[C@@H]3COS(=O)(=O)O)O[C@@H]2COS(=O)(=O)O)[C@H](OS(=O)(=O)O)[C@@H](OS(=O)(=O)O)[C@@H]1O[C@H]1O[C@H](COS(=O)(=O)O)[C@@H](O[C@H]2O[C@H](COS(=O)(=O)O)[C@@H](O[C@H]3O[C@H](COS(=O)(=O)O)[C@@H](OS(=O)(=O)O)[C@H](OS(=O)(=O)O)[C@H]3OS(=O)(=O)O)[C@H](OS(=O)(=O)O)[C@H]2OS(=O)(=O)O)[C@H](OS(=O)(=O)O)[C@H]1OS(=O)(=O)O (stereo partly drawn) [Maltoheptaose Poly(H-)sulfate Sodium Salt] | 6 Wells and 5 Wells |  |  |  |  |  |  |  |  |  |  | 
O=S(=O)(O)OC[C@H]1O[C@H](O[C@H]2[C@H](OS(=O)(=O)O)[C@@H](OS(=O)(=O)O)[C@@H](O[C@H]3[C@H](OS(=O)(=O)O)[C@@H](OS(=O)(=O)O)[C@@H](O[C@H]4[C@H](OS(=O)(=O)O)[C@@H](OS(=O)(=O)O)C(OS(=O)(=O)O)O[C@@H]4COS(=O)(=O)O)O[C@@H]3COS(=O)(=O)O)O[C@@H]2COS(=O)(=O)O)[C@H](OS(=O)(=O)O)[C@@H](OS(=O)(=O)O)[C@@H]1O[C@H]1O[C@H](COS(=O)(=O)O)[C@@H](O[C@H]2O[C@H](COS(=O)(=O)O)[C@@H](O[C@H]3O[C@H](COS(=O)(=O)O)[C@@H](OS(=O)(=O)O)[C@H](OS(=O)(=O)O)[C@H]3OS(=O)(=O)O)[C@H](OS(=O)(=O)O)[C@H]2OS(=O)(=O)O)[C@H](OS(=O)(=O)O)[C@H]1OS(=O)(=O)O (stereo partly drawn) [Maltoheptaose Poly(H-)sulfate Trimethylamine Salt] |  | +4 Wells | +4 WELLS | 5 Wells | +9 Wells | +5 WELLS | +9 WELLS |  |  |  |  | 
O=S(=O)(O)OC[C@H]1O[C@H](O[C@H]2[C@H](OS(=O)(=O)O)[C@@H](OS(=O)(=O)O)C(OS(=O)(=O)O)O[C@@H]2COS(=O)(=O)O)[C@H](OS(=O)(=O)O)[C@@H](OS(=O)(=O)O)[C@@H]1OS(=O)(=O)O (stereo partly drawn) [Maltose Poly(H-)Sulfate Trimethylamine Salt] |  | -2 Wells | -2 WELLS | Neg. |  | +10 WELLS | +8 WELLS | Neg. | 1024 |  |  | 
O=S(=O)(O)OC[C@H]1O[C@H](O[C@H]2[C@H](OS(=O)(=O)O)[C@@H](OS(=O)(=O)O)C(OS(=O)(=O)O)O[C@@H]2COS(=O)(=O)O)[C@H](OS(=O)(=O)O)[C@@H](OS(=O)(=O)O)[C@@H]1OS(=O)(=O)O (stereo partly drawn) [Maltose Poly(H--) sulfate sodium salt, Maltose Poly (H-)Sulfate Sodium Salt] |  |  |  |  |  |  |  |  |  | +2 Wells | +2 WELLS | +12 WELLS
Maltotriose Poly(H-)sulfate Sodium Salt |  | -1 Wells | -1 WELLS | Neg. | +9 Wells | +10 WELLS | +9 WELLS | Neg. | 1024 |  |  | 
Maltotriose Poly(H-)sulfate Trimethylamine Salt |  | -1 Wells | -1 WELLS | Neg. | +7 Wells | +8 WELLS | +7 WELLS | Neg. | 256 |  |  | 
